Measured values reported in publication doi:10.1101/2022.03.07.483284v1 (biorxiv, 2022).

molecular target: T1, WTapPOL (intact exonuclease domain) (Plasmodium falciparum, UniProt Q8ILY1); assay: […]'-5' exonuclease assay, 2-aminopurine release from blunt-ended dsDNA; type: biochemical; details: not given
T1 sequence (Q8ILY1 1389-2016): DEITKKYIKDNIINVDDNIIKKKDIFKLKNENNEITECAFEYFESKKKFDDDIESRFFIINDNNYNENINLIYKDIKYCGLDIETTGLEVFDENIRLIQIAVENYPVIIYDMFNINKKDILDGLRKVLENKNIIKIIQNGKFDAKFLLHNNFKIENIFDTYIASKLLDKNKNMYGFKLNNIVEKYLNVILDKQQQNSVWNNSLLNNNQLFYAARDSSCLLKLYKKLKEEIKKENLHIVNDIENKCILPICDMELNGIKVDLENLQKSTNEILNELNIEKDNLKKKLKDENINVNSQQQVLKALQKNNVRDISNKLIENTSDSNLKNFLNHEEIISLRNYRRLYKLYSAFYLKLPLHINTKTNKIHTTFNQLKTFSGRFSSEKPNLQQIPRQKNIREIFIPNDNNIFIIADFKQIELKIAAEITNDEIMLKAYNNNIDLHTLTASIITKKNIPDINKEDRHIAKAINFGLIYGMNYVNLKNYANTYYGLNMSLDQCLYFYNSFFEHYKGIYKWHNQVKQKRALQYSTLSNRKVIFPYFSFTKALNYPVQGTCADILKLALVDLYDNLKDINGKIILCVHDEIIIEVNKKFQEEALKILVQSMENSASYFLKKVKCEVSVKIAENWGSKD

Row | SMILES | IC50
1 | CC(C)(C)c1ccc(S(=O)(=O)Nc2c3c(nn2-c2cccc(Cl)c2)CSC3)cc1 [6a] | 40 ± 5.7 µM
2 | CC(C)(C)c1ccc(S(=O)(=O)Nc2c3c(nn2-c2ccc(Cl)cc2)CSC3)cc1 [6b] | 21 ± 2.5 µM
3 | CC(C)(C)c1ccc(S(=O)(=O)Nc2c3c(nn2-c2ccc(C(F)(F)F)cc2)CSC3)cc1 [6f] | 16 ± 0.9 µM
4 | CC(C)(C)c1ccc(S(=O)(=O)Nc2c3c(nn2-c2cccc(C(F)(F)F)c2)CSC3)cc1 [6e] | 41 ± 6.7 µM

molecular target: T1, WTapPOL (intact exonuclease domain); assay: as above; type: biochemical; details: read-out: % inhibition at 100 μM

Row | SMILES | inhibition at 100 µM
5 | CC(C)(C)c1ccc(C(=O)Nc2c3c(nn2-c2cccc(Cl)c2)CSC3)cc1 [5a, MMV666123] | < 50%
6 | CC(C)(C)c1ccc(NC(=O)Nc2c3c(nn2-c2ccc(Cl)cc2)CSC3)cc1 [7b] | < 50%
7 | CC(C)(C)c1ccc(NC(=O)Nc2c3c(nn2-c2cccc(C(F)(F)F)c2)CSC3)cc1 [7e] | < 50%
8 | CC(C)(C)c1ccc(NC(=O)Nc2c3c(nn2-c2cccc(Cl)c2)COC3)cc1 [13a] | < 50%
9 | CC(C)(C)c1ccc(NC(=O)Nc2c3c(nn2-c2cccc(Cl)c2)CSC3)cc1 [7a] | < 50%
